Laboratory results reported in PubChem BioAssay (NCI).
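Exposure lasted 48 hours, with cells grown in 96-well plates and compounds tested at five concentrations. The concentration for 50% growth inhibition is given as GI50. TGI marks complete inhibition of growth.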

Legend:
Experiment in all cases: NCI-60 cell line screen, 48 h
786-0 renal = system: 786-0 renal
A498 renal = system: A498 renal
A549 NSCLC = system: A549 NSCLC
ACHN renal = system: ACHN renal
BT-549 breast = system: BT-549 breast
CAKI-1 renal = system: CAKI-1 renal
CCRF-CEM leukemia = system: CCRF-CEM leukemia
COLO 205 colon = system: COLO 205 colon
DU-145 prostate = system: DU-145 prostate
EKVX NSCLC = system: EKVX NSCLC
HCC-2998 colon = system: HCC-2998 colon
HCT-116 colon = system: HCT-116 colon
HCT-15 colon = system: HCT-15 colon
HL-60(TB) leukemia = system: HL-60(TB) leukemia
HOP-62 NSCLC = system: HOP-62 NSCLC
HOP-92 NSCLC = system: HOP-92 NSCLC
HS 578T breast = system: HS 578T breast
HT29 colon = system: HT29 colon
IGROV1 ovarian = system: IGROV1 ovarian
KM12 colon = system: KM12 colon
LOX IMVI melanoma = system: LOX IMVI melanoma
M14 melanoma = system: M14 melanoma
MALME-3M melanoma = system: MALME-3M melanoma
MCF7 breast = system: MCF7 breast
MDA-MB-231 breast = system: MDA-MB-231 breast
MDA-MB-435 = system: MDA-MB-435
MDA-MB-468 breast = system: MDA-MB-468 breast
MOLT-4 leukemia = system: MOLT-4 leukemia
NCI-H226 lung = system: NCI-H226 lung
NCI-H23 lung = system: NCI-H23 lung
NCI-H460 lung = system: NCI-H460 lung
NCI-H522 lung = system: NCI-H522 lung
NCI/ADR-RES ovarian = system: NCI/ADR-RES ovarian
OVCAR-3 ovarian = system: OVCAR-3 ovarian
OVCAR-4 ovarian = system: OVCAR-4 ovarian
OVCAR-5 ovarian = system: OVCAR-5 ovarian
OVCAR-8 ovarian = system: OVCAR-8 ovarian
PC-3 prostate = system: PC-3 prostate
RPMI-8226 leukemia = system: RPMI-8226 leukemia
RXF 393 renal = system: RXF 393 renal
SF-268 CNS = system: SF-268 CNS
SF-295 CNS = system: SF-295 CNS
SF-539 CNS = system: SF-539 CNS
SK-MEL-2 melanoma = system: SK-MEL-2 melanoma
SK-MEL-28 melanoma = system: SK-MEL-28 melanoma
SK-MEL-5 melanoma = system: SK-MEL-5 melanoma
SK-OV-3 ovarian = system: SK-OV-3 ovarian
SN12C renal = system: SN12C renal
SNB-19 CNS = system: SNB-19 CNS
SNB-75 CNS = system: SNB-75 CNS
SR leukemia = system: SR leukemia
SW-620 colon = system: SW-620 colon
T-47D breast = system: T-47D breast
TK-10 renal = system: TK-10 renal
U251 CNS = system: U251 CNS
UACC-257 melanoma = system: UACC-257 melanoma
UACC-62 melanoma = system: UACC-62 melanoma
UO-31 renal = system: UO-31 renal

O=C(NN1C(=O)/C(=C/C=C/c2ccc([N+](=O)[O-])o2)SC1=S)c1ccc([N+](=O)[O-])cc1
GI50 (786-0 renal): 247 nM | TGI (786-0 renal): 645 nM | GI50 (A498 renal): 3280 nM | TGI (A498 renal): 10900 nM | GI50 (A549 NSCLC): 1860 nM | TGI (A549 NSCLC): 4090 nM | GI50 (ACHN renal): 1030 nM | TGI (ACHN renal): 2200 nM | GI50 (BT-549 breast): 189 nM | TGI (BT-549 breast): 489 nM | GI50 (CAKI-1 renal): 704 nM | TGI (CAKI-1 renal): 1940 nM | GI50 (CCRF-CEM leukemia): 262 nM | TGI (CCRF-CEM leukemia): 1050 nM | GI50 (COLO 205 colon): 301 nM | TGI (COLO 205 colon): 826 nM | GI50 (DU-145 prostate): 936 nM | TGI (DU-145 prostate): 2290 nM | GI50 (EKVX NSCLC): 639 nM | TGI (EKVX NSCLC): 1880 nM | GI50 (HCC-2998 colon): 389 nM | TGI (HCC-2998 colon): 1290 nM | GI50 (HCT-116 colon): 156 nM | TGI (HCT-116 colon): 332 nM | GI50 (HCT-15 colon): 130 nM | TGI (HCT-15 colon): 315 nM | GI50 (HL-60(TB) leukemia): 1800 nM | TGI (HL-60(TB) leukemia): 6810 nM | GI50 (HOP-62 NSCLC): 771 nM | TGI (HOP-62 NSCLC): 2130 nM | GI50 (HOP-92 NSCLC): 310 nM | TGI (HOP-92 NSCLC): 1210 nM | GI50 (HS 578T breast): 1750 nM | TGI (HS 578T breast): 5770 nM | GI50 (HT29 colon): 225 nM | TGI (HT29 colon): 513 nM | GI50 (IGROV1 ovarian): 601 nM | TGI (IGROV1 ovarian): 1610 nM | GI50 (KM12 colon): 925 nM | TGI (KM12 colon): 2420 nM | GI50 (LOX IMVI melanoma): 213 nM | TGI (LOX IMVI melanoma): 499 nM | GI50 (M14 melanoma): 189 nM | TGI (M14 melanoma): 396 nM | GI50 (MALME-3M melanoma): 181 nM | TGI (MALME-3M melanoma): 377 nM | GI50 (MCF7 breast): 363 nM | TGI (MCF7 breast): 1690 nM | GI50 (MDA-MB-231 breast): 185 nM | TGI (MDA-MB-231 breast): 368 nM | GI50 (MDA-MB-435): 243 nM | TGI (MDA-MB-435): 633 nM | GI50 (MDA-MB-468 breast): 1310 nM | TGI (MDA-MB-468 breast): 2790 nM | GI50 (MOLT-4 leukemia): 322 nM | TGI (MOLT-4 leukemia): 1940 nM | GI50 (NCI-H226 lung): 548 nM | TGI (NCI-H226 lung): 1620 nM | GI50 (NCI-H23 lung): 289 nM | TGI (NCI-H23 lung): 916 nM | GI50 (NCI-H460 lung): 341 nM | TGI (NCI-H460 lung): 1240 nM | GI50 (NCI-H522 lung): 187 nM | TGI (NCI-H522 lung): 376 nM | GI50 (NCI/ADR-RES ovarian): 765 nM | TGI (NCI/ADR-RES ovarian): 3110 nM | GI50 (OVCAR-3 ovarian): 491 nM | TGI (OVCAR-3 ovarian): 1750 nM | GI50 (OVCAR-4 ovarian): 1450 nM | TGI (OVCAR-4 ovarian): 2900 nM | GI50 (OVCAR-5 ovarian): 1440 nM | TGI (OVCAR-5 ovarian): 2750 nM | GI50 (OVCAR-8 ovarian): 266 nM | TGI (OVCAR-8 ovarian): 964 nM | GI50 (PC-3 prostate): 1230 nM | TGI (PC-3 prostate): 3200 nM | GI50 (RPMI-8226 leukemia): 344 nM | TGI (RPMI-8226 leukemia): 2110 nM | GI50 (RXF 393 renal): 521 nM | TGI (RXF 393 renal): 1860 nM | GI50 (SF-268 CNS): 1560 nM | TGI (SF-268 CNS): 4450 nM | GI50 (SF-295 CNS): 1700 nM | TGI (SF-295 CNS): 3180 nM | GI50 (SF-539 CNS): 263 nM | TGI (SF-539 CNS): 745 nM | GI50 (SK-MEL-2 melanoma): 239 nM | TGI (SK-MEL-2 melanoma): 785 nM | GI50 (SK-MEL-28 melanoma): 1100 nM | TGI (SK-MEL-28 melanoma): 2400 nM | GI50 (SK-MEL-5 melanoma): 258 nM | TGI (SK-MEL-5 melanoma): 760 nM | GI50 (SK-OV-3 ovarian): 1910 nM | TGI (SK-OV-3 ovarian): 3810 nM | GI50 (SN12C renal): 175 nM | TGI (SN12C renal): 390 nM | GI50 (SNB-19 CNS): 1460 nM | TGI (SNB-19 CNS): 2810 nM | GI50 (SNB-75 CNS): 1250 nM | TGI (SNB-75 CNS): 3380 nM | GI50 (SR leukemia): 21.3 nM | TGI (SR leukemia): > 100000 nM | GI50 (SW-620 colon): 188 nM | TGI (SW-620 colon): 405 nM | GI50 (T-47D breast): 1800 nM | TGI (T-47D breast): 4400 nM | GI50 (TK-10 renal): 1580 nM | TGI (TK-10 renal): 2970 nM | GI50 (U251 CNS): 381 nM | TGI (U251 CNS): 1660 nM | GI50 (UACC-257 melanoma): 1440 nM | TGI (UACC-257 melanoma): 3210 nM | GI50 (UACC-62 melanoma): 218 nM | TGI (UACC-62 melanoma): 607 nM | GI50 (UO-31 renal): 1080 nM | TGI (UO-31 renal): 2290 nM
